# Data as given in ChEMBL document CHEMBL1275430, “Impact of mycophenolic acid on the functionality of human polymorphonuclear neutrophils and dendritic cells during interaction with Aspergillus fumigatus” (2008).
# Tests used:
# Type in all cases: functional
# [1] = Induction of oxidative burst of polymorphonuclear neutrophil co-cultured with Aspergillus fumigatus germlings at 10 uM after 120 minutes relative to untreated control
# [2] = Inhibition of Aspergillus fumigatus-mediated dendritic cell maturation assessed as decreased CD86 expression at 10 uM
# [3] = Induction of oxidative burst of polymorphonuclear neutrophil co-cultured with Aspergillus fumigatus germlings at 10 uM after 60 minutes relative to untreated control
# [4] = Inhibition of Aspergillus fumigatus-mediated dendritic cell maturation assessed as decreased CD80 expression at 10 uM
# Aspergillus fumigatus [5] = test: Effect on polymorphonuclear neutrophil killing of Aspergillus fumigatus assessed as survival rate of fungi at 10 ug/ml (reference value: 53% +/- 11%)
# [6] = Induction of IL-2 expression in […] dendritic cell co-cultured with Aspergillus fumigatus germ tube at 10 uM after 7 days by RT-PCR
# [7] = Inhibition of Aspergillus fumigatus-mediated dendritic cell maturation assessed as decreased CD40 expression at 10 uM
# [8] = Inhibition of Aspergillus fumigatus-mediated dendritic cell maturation assessed as decreased CD83 expression at 10 uM
# [9] = Induction of TNF-alpha expression in […] dendritic cell co-cultured with Aspergillus fumigatus germ tube at 10 uM after 7 days by RT-PCR
# [10] = Inhibition of Aspergillus fumigatus-mediated dendritic cell maturation assessed as decreased CD1a expression at 10 uM
# Aspergillus fumigatus [11] = test: Effect on polymorphonuclear neutrophil killing of Aspergillus fumigatus assessed as survival rate of fungi (reference value: 53% +/- 11%)
SMILES,fold change (FC) [1],inhibition at 10 µM [2],fold change (FC) [3],inhibition at 10 µM [4],survival at 10 µg/mL (Aspergillus fumigatus [5]),Activity [6],inhibition at 10 µM [7],inhibition at 10 µM [8],Activity [9],inhibition at 10 µM [10],Survival (Aspergillus fumigatus [11])
COc1c(C)c2c(c(O)c1C/C=C(\C)CCC(=O)O)C(=O)OC2 [MYCOPHENOLIC ACID],2.8,43.8%,3.8,46.7%,57%,94%,39.3%,21.1%,52%,68.8%,
CCCCCCCCCCCCCC(=O)O[C@@H]1[C@@H](C)[C@@]2(O)[C@@H](C=C(CO)C[C@]3(O)C(=O)C(C)=C[C@@H]23)[C@@H]2C(C)(C)[C@]12OC(C)=O [PHORBOL MYRISTATE ACETATE],,,,,,,,,,,26%
